Drawing on a melting point compilation (Tetko et al.; mined from patent text by program, amines drawn as free bases though some values may be those of a salt), this text covers melting point for 87 molecules.

Broadly, the melting point is the temperature of the solid-liquid transition. Consider `Clc1cccc(N2CCN(CCCc3nnn[nH]3)CC2)c1`, for which the melting point is 162 to 164 °C.

In turn, `CCc1nc2c(N)nc3cc(Oc4ccc(C(=O)OC)cn4)ccc3c2s1` showed a melting point of 213 to 214 °C.

As to `O=C(CCNC1CC1)Nc1cc(-c2nnc(SCc3cccc(F)c3)o2)ccn1`, the melting point is 102 to 103 °C.

`Cc1ccc(S(=O)(=O)Oc2cccc(NC(=O)NS(=O)(=O)c3ccccc3)c2)cc1` returned a melting point of 162 to 170 °C. For `COC(=O)CC(=O)Nc1cccc(COc2ccc(C(C)=O)c(OC)c2)c1` the value was 93.5 to 96.5 °C; for `COc1cc(-c2nc3ccccc3n2Cc2ccc(Cl)cc2)cc(OC)c1OC`, 169 °C.

For the molecule `CC1(N)CN(c2cc3c(cc2F)c(=O)c(C(=O)O)cn3-c2ccc(F)cc2)C1`, the melting point fell in the range of 270 to 276 °C. For `CN1C(C)(C)CC(OC(=O)N=NC(=O)OC2CC(C)(C)N(C)C(C)(C)C2)CC1(C)C` the value was 135 to 137 °C; for `CC(C)(C)OC(=O)CCc1ccc(O)cc1CN`, 154 to 157 °C; for `Cc1cc(C=O)cc(Oc2nc(Cl)nc(Cl)c2C(C)C)c1`, 227 to 229 °C.

`CN(C)c1ccc(C=O)c([N+](=O)[O-])c1`: the melting point fell in the range of 115 to 116 °C. For `CCCCC(=O)N(Cc1ccc2c(c1)c1ccccc1n2CCc1nnn[nH]1)C(C(=O)O)C(C)C` (configuration not stated) the value was 111 to 112 °C; for `CN(c1ccc(C(C(F)(F)Cl)C(F)(F)Cl)cc1)S(C)(=O)=O`, 140 to 142 °C. For `ICC(c1ccccc1)c1ccccc1` the value was 76 to 78 °C; for `CC(C)(Cl)C(CCN1C(=O)c2ccccc2C1=O)N=O` (configuration not stated), 140 to 141 °C.

`O=C(NCC(O)c1cccc(OCc2ccc3ccccc3n2)c1)c1ccccn1` (configuration not stated) displayed a melting point of 126 to 129 °C. Take `CC(=O)Nc1ccc2c3c(cccc13)S(=O)(=O)N2CCCN1CC=C(c2ccccc2)CC1`: the melting point was found to be 178 °C. The same measure for `O=C(CC12CC3CC(CC(C3)C1)C2)Nc1ccc2cn[nH]c2c1`: 245 °C; for `O=C(CBr)c1ccc(Br)c(Br)c1`: 60 to 61 °C. The same measure for `CCCCCCNC(=O)Oc1ccc2c(c1)CCCN2C`: 50 °C; for `CCOC(=O)Nc1cc(C(=O)OC)c(O)c2ncc(Cc3ccc(F)cc3)cc12`: 205 to 206 °C. The molecule `CCCc1c2[nH]c(C(=O)OCC)cc(=O)c2cc2c(=O)cc(C(=O)OCC)oc12` returned a melting point of 211 to 212 °C. For `N#Cc1cnc2cc(-c3ccc(CN4CCOCC4)cn3)ccc2c1Nc1ccc(Oc2ccccc2)cc1`, the melting point was 219 to 221 °C. For `CON(c1ccc(C#N)cc1Cl)S(=O)(=O)c1ccc(C)cc1` the value was 145 to 147 °C; for `CCOC(=O)C1=C[C@@H](OC(CC)CC)[C@@H](NC(C)=O)[C@H](N=[N+]=[N-])[C@@H]1OS(C)(=O)=O`, 96 to 98 °C; for `CS(=O)c1ccc2nc(NC(=N)N)nc(-c3ccccc3)c2c1` (configuration not stated), 175 to 180 °C.

`O=C1OCCC1Oc1ccc(-c2ccccc2)cc1[N+](=O)[O-]` (configuration not stated) had a melting point of 117 to 119 °C. As to `O=C(O)CNC(=O)[C@@H](CO)NC(=O)CNC(=O)CSC(=O)c1ccccc1`, the melting point worked out at 149 °C.

In turn, `CCN(CCCN1C(=O)c2cc(OC)ccc2C(C)(C)C1=O)CCCN1C(=O)c2cc(OC)ccc2C(C)(C)C1=O` had a melting point of 141 to 143 °C. For `Cc1nc(NC(=O)c2ccc(S(C)(=O)=O)cc2)sc1C(=O)NCc1ccccc1` the value was 262 to 265 °C; for `O=C(O)c1[nH]c(-c2cccs2)cc1-c1ccc(F)cc1`, 194 to 195 °C; for `COC(=O)CCCc1cc2cc(Cl)ccc2n1S(=O)(=O)c1ccc2nc(NC(C)=O)sc2c1`, 120 °C.

Regarding `O=c1[nH]c(-c2[nH]c3ccccc3c2Cl)no1`, the melting point fell in the range of 240 to 241 °C. For `C=C(C#N)CN1CCC(C(N)=O)CC1` the value was 127 to 129 °C; for `COc1ccc(C)c(N2CCN(C(=O)N(C)c3cc(C)c(C)nc3OC)CC2)c1`, 91 to 93 °C; for `Cc1ccc2c(c1)C=Cc1cc(C)ccc1C2c1cn(-c2ncc(C(=O)O)c(NCC(=O)O)n2)c(=O)[nH]c1=O`, 271 °C.

Molecule `CCN(CC)C(=O)n1cnc(S(=O)(=O)c2ccccc2OCC(F)(F)F)n1` had a melting point of 134 to 135 °C. For `CCCCNC(=O)c1ccccc1CN1C(=O)C2(COc3cc4c(cc32)CCO4)c2ccccc21` (configuration not stated) the value was 176 to 178 °C; for `Nc1ccc(Cn2ncnn2)cc1`, 86 to 87 °C; for `COc1ccc(Nc2ccnc3nc(C)c(OC(=O)COC(C)=O)cc23)cc1`, 213 to 216 °C. Turning to `CCCC1CCC(c2ccc(-c3cc(F)c(F)c(F)c3C=O)cc2)CC1` (configuration not stated), the melting point was 62 °C.

As for `CC1(C)C=C(CC(=O)O)C(C)(C)CC1`, the melting point is 50 to 54 °C.

`Cc1cc([N+](=O)[O-])c(O)c([N+](=O)[O-])c1C` had a melting point of 120 to 122 °C.

With `CC(CCc1c[nH]c2c(F)cc(F)cc12)N(CC1CC1)C1COc2c(F)ccc(C(N)=O)c2C1` (configuration not stated), the melting point is 175 to 180 °C. The same measure for `CCCCc1nc2c(n1Cc1ccc(-c3ccccc3S(N)(=O)=O)cc1)C(=NO)CCS2`: more than 200 °C. The same measure for `O=C(c1ccc(Cl)cc1)c1cnc2ccc(Cl)cc2c1Cl`: 170 °C; for `Cc1ccccc1C1CC(=O)CC(c2ccccc2C)N1C` (configuration not stated): 155 to 157 °C; for `FC(F)c1nc2ccccc2n1-c1nc(Nc2cncnc2)nc(N2CCOCC2)n1`: 290 to 292 °C.

Regarding `N#Cc1c[nH]c2cc(N3CCC(N4CCCC4)CC3)c([N+](=O)[O-])cc2c1=O`, the melting point was 232 to 235 °C.

In turn, `CCC1C(C=O)=NN=C(c2ccc(OC)c(OC)c2)c2cc(OC)c(OC)cc21` (configuration not stated) came in with a melting point of 103 to 105 °C. For `FC(F)(F)Oc1ccc(-n2cnc(-c3ccc(/C=N/NC(=S)Nc4ccccc4C4CCCC4)cc3)n2)cc1` the value was 213 to 216 °C; for `CCCCC(=O)c1c(-c2ccc3cc(OCC(=O)O)ccc3c2)oc2ccc(Cl)cc12`, 158 to 160 °C; for `O=C1c2nccc(-c3ccccc3NC(=O)C(F)(F)F)c2C(=O)c2c([N+](=O)[O-])ccnc21`, 158 °C. Turning to `CC(C)(C)OC(=O)NC(O)CCO` (configuration not stated), the melting point lay in the range of 83 to 85 °C.

The molecule `Cn1c2c(c3ccccc31)CCOC2(C)C` registered a melting point of 96 to 97 °C. For `CCOC(=O)C1=C(C)NC(C)=C(C(=O)OCCOC)C1c1cccc([N+](=O)[O-])c1` (configuration not stated) the value was 108 °C. The same measure for `CC(=O)N1CCc2ccc(N)cc2C1`: 98 to 100 °C. For `c1ccc(CN2CCN(Cc3cc4ccccc4[nH]3)CC2)cc1` the value was 157 to 159 °C; for `C[C@@H]1Cc2ccsc2[C@H](C)N1CCNC(=O)c1ccccn1` (relative stereo), 116 to 120 °C. Regarding `COC(=O)c1cc(SC(F)(F)F)c(-c2ccc(Cl)cc2)[nH]1`, the melting point was 133 to 137 °C. The same measure for `Nc1cnc2cc(Cl)ccc2c1Nc1ccc(F)cc1`: 198 to 200 °C.

Molecule `CS(=O)(=O)c1nc(OCc2ccccc2)cc(C(F)(F)F)n1` registered a melting point of 115 to 118 °C.

`CCCCCOc1cc(C(=O)O)cc(N)c1-c1ccccc1`: the melting point was in the range of 134 to 135 °C. For `CC(=O)Nc1c(C(=O)c2cccc(O)c2)[nH]c2cc(Cl)ccc12` the value was 130 to 145 °C; for `CC1CCC(C(C)C)C(OC(=O)C(=O)Nc2nc(-c3ccccc3)cs2)C1` (configuration not stated), 98 to 100 °C. The same measure for `CC(C)N1CCN(S(=O)(=O)c2ccc(NC(=O)Nc3ccc(C(F)(F)F)cc3)cc2)CC1`: 208 to 212 °C. Turning to `CNC(=O)[C@H]1CN(c2ccc3c(c2)sc(=O)n3C(C)C)C(=O)O1`, the melting point lay in the range of 172 to 174 °C. As for `CCC1(CCCCN2CCN(c3ccccn3)CC2)C(=O)Nc2ccc(Cl)cc21` (configuration not stated), the melting point lay within 154 to 156 °C.

For the molecule `CC12CCC3c4ccc(C(=O)O)cc4CCC3C1CCC2C(=O)c1ccc(-c2ccccc2)cc1` (configuration not stated), the melting point was 268 to 270 °C. The same measure for `COc1nnc(SCC2=C(C(=O)O)N3C(=O)C(NC(=O)Cc4csc(=O)s4)C3SC2)s1` (configuration not stated): 208 °C; for `CN=C(NOC)c1nn(-c2c(Cl)cc(C(F)(F)F)cc2Cl)c(N)c1S(C)=O` (configuration not stated): 139 to 142 °C. For `CCOC(=O)CC(=O)c1cc(F)c(S(=O)(=O)c2ccccc2)nc1Nc1ccc(F)cc1F` the value was 140 to 141 °C; for `O=C1OC(=O)c2c(C(F)(F)F)c3ccccc3c3cccc1c23`, 235 to 237 °C; for `CCOC(=O)c1c(CN(CC)CC)nc2sc3c(c2c1-c1ccc(OC)c(OC)c1)CCN=C3`, 118 to 120 °C. The same measure for `COC(=O)C1=C(C)NN=C(c2ccco2)C1c1ccccc1Cl` (configuration not stated): 195 °C; for `CCn1c(C)c(C)c(=O)c(C(=O)O)c1-c1ccc(Cl)cc1`: 240 to 242 °C; for `CCOC(=O)c1ccc(OCc2ccc(C3CCN(C(=O)OC(C)(C)C)CC3)cn2)cc1F`: 92 to 95 °C. `NC(=O)c1cc(F)c(N[C@H]2CC[C@H](N)CC2)cc1F` yielded a melting point of 209 to 210 °C. For `O=c1[nH]c2cc(Cl)ccc2n1CCCBr` the value was 162 °C.

`CCCCc1ccc(/C(Cl)=C/c2ccc(Br)cc2)cc1` yielded a melting point of 59 to 61 °C. The same measure for `ON=Cc1cc(OCC(F)(F)F)ccc1OCc1ccccc1`: 93 to 95 °C; for `CC(C)C(=O)c1ccc(N2CCOCC2)cc1`: 75 to 77 °C.

Molecule `Cc1ccnc2c1C(=O)CC(c1sc(Cl)cc1Cl)C2` (configuration not stated) showed a melting point of 109 to 111 °C.

The molecule `CCn1ncc2c1ncc1c(SC)nc3cc(C)nn3c12` came in with a melting point of 168 to 169 °C. The molecule `CCc1nn(-c2ccc(F)cc2)c2cc(C(=O)O)ccc12` gave a melting point of 204 to 205 °C. For `Fc1ccc(CSc2nc3cnccc3[nH]2)cc1F` the value was 147 to 149 °C. The same measure for `COc1cc(C(C)C)c2c(c1)S(=O)(=O)N(COc1cc(Cl)nn1-c1ccccc1)C2=O`: 109 to 110 °C.
